Assay results published in patent publication US8481519B2 (LTS Lohmann Therapie-Systeme AG, priority 2005, dated 2013).

Columns and labels:
[1] = molecular target: T1, human androgen receptor (hAR) (Homo sapiens, UniProt P10275); experiment: androgen receptor-dependent MMTV-luc reporter gene assay (luciferase assay) in transfected CV1 cells; assay type: cell-based; settings: for antiandrogenic effect of atraric acid derivatives and structurally similar compounds: FIGS. 6 and 7, concentration not given (FIG. 6: 10^−6 M); for inactivation of androgen receptor-mediated transactivation: 1 μM concentration; for inhibition of androgen receptor-mediated transactivation: 10 μM concentration, FIG. 7
T1 construct: expressed in transfected cells; host or cells: CV1 monkey kidney cells, which lack endogenous androgen receptor
T1 sequence (P10275 1-920): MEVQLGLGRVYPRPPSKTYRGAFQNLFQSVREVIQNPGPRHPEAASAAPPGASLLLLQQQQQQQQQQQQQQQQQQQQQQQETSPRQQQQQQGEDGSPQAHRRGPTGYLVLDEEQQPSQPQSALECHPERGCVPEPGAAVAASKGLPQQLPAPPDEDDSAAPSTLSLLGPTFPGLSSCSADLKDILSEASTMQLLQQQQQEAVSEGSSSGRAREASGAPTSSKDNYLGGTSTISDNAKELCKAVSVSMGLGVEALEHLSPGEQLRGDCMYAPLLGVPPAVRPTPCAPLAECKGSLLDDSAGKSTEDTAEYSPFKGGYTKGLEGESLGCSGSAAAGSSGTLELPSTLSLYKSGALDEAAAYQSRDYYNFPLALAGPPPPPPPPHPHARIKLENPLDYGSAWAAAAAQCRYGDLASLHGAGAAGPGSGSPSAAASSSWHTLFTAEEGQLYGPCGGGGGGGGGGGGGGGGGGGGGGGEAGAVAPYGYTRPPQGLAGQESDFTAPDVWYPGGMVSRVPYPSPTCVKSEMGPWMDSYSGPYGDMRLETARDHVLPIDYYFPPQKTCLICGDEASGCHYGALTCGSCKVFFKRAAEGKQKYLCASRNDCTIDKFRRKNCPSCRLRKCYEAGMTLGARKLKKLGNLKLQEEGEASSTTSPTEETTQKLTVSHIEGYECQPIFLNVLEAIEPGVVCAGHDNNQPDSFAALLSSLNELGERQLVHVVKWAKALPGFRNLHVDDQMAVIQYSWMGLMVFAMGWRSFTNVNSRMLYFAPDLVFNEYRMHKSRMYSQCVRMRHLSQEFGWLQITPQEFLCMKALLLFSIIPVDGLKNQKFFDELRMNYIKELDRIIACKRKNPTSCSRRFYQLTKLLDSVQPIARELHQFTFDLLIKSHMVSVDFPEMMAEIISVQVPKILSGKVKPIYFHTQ
Excerpt: The potentially antiandrogenic efficacy of the extracts obtained was examined with the androgen receptor-dependent MMTV-luc reporter gene assay, in the following designated as luciferase assay.
In that assay, the enzyme luciferase serves as a reporter gene. Luciferase is an oxidoreductase from the North American firefly Photinus pyralis, which […] the substrate luciferin in the presence of aerial oxygen, ATP and Mg^2+ ions, to oxyluciferin. The energy emitted in the process is emitted as light.
The reporter gene luciferase is located on the plasmid pMMTV-luc (MMTV=Mouse mammary tumour virus), on which is also located the androgen-responsive element (ARE). The plasmid pMMTV-luc is transfected, together with the androgen receptor expression vector, into fibroblasts of the monkey kidney. If an androgen is added thereto, this androgen will bind, in a complex with the androgen receptor, to the androgen-responsive element. This process then initiates the transcription of the following gene, namely that of the luciferase reporter gene. The amount of the expressed luciferase is directly proportional to the amount of light released when adding luciferin, and the amount of light can be quantified by measuring the emission at λ=562 nm. If apart from the androgen there is also an antiandrogenic substance or an antiandrogenic extract, the transactivation of the luciferase reporter gene by the androgen-responsive element is inhibited and later, when the substrate is added, a correspondingly smaller amount of light energy is released.
The extracts were then examined at two concentrations (300 μg/ml and 600 μg/ml) for their antiandrogenic bioactivity using the luciferase assay.
Monkey kidney cells, line CV1, lacking endogenous androgen receptor, were cultured in Dulbecco's modified Eagle's medium (DMEM), supplemented with 10% (v/v) fetal calf serum, penicillin (100 IU/ml) and streptomycin (100 IU/ml), at 37° C. and 5% CO2.
For the transfection experiments, the cells were seeded onto 6-well cell culture plates (Nunc, Roskilde, Denmark) with a density of 1.2×10^5 cells per well, and grown in DMEM medium supplemented with 10% (v/v) dextran-coated activated charcoal stripped serum. Six hours after seeding, the cells were transfected by using the Ca3(PO4)2 method. The human androgen receptor (hAR) expression vector (0.2 μg) was cotransfected with 1 μg of the reporter plasmid MMTV-luc and 0.2 μg of the cytomegalovirus (CMV)-driven β-galactosidase expression virus, as internal control for transfection efficiency. After 14 hours, the medium was replaced either without (white bars in FIGS. 1 to 3) or with the addition of methyltrienolone (R1881, 3×10^−10 M final concentration; black bars in FIGS. 1 to 3) together with the indicated extracts (FIG. 1), fractions of the methylene chloride extract (FIG. 2) or individual isolated compounds (FIG. 3). After an additional 48 hours, cells were harvested and assayed for luciferase and β-galactosidase activity.
Luciferase activity was determined by injecting luciferin and measuring light emission at 562 nm and expressed as relative light units (RLU) by using the values […] β-galactosidase activity for normalisation of the luciferase activity. All transfection assays shown were performed in duplicate and were repeated at least twice.
For determining antiandrogenic activity in the various extracts from the bark of P. africana, the extracts were used at a concentration of 300 μg/ml.
For determining the antiandrogenic activity in the fractions of the selective methylene chloride extracts, 2 μl of the respective fraction was used, corresponding to a final concentration of 30 μg/ml. Fractions 6 to F10 were additionally tested with 4 μl, corresponding to 60 μg/ml final concentration.

[2] = system: pathologically altered androgen receptor; settings: background, prior work; cited from earlier work
[3] = system: human prostate carcinoma cells (cell line LNCaP); experiment: LNCaP cell growth assay; assay type: cell-based; settings: FIG. 4; for growth of LNCaP cells: atraric acid 10 μM, OH—F 0.1 μM
Description: The growth of prostate cells and prostate cancer cells is originally dependent on androgens.
Human prostate carcinoma cells (cell line LNCaP) were cultured in RPMI-1640 medium that was supplemented with 10% (v/v) fetal calf serum, penicillin (100 IU/ml) and streptomycin (100 IU/ml), 2 mM glutamine and 1 mM sodium pyruvate.
For the cell growth assays, LNCaP cells were seeded onto a 24-well cell culture plate at a density of 5×10^3 cells per well and cultured in RPMI-1640 medium containing 5% fetal calf serum. […] Every second day the medium was replaced with fresh medium together with freshly added compounds. The cells were trypsinized and counted using a counting cell chamber on the indicated days.

human ERβ = molecular target: T2, human ERβ (Homo sapiens, UniProt Q92731); experiment: p2ERE-TATA-luc reporter gene assay in CV1 cells transfected with ERβ; assay type: cell-based; settings: FIG. 8
T2 construct: expressed in transfected cells; host or cells: CV1 cells
Description: (§1) After seven days, the cells were seeded in 6-well plates (Nunc, Roskilde, Denmark) at a density of 1.5×10^5 cells per well. After 24 hours, the cells were transfected according to the calcium phosphate method with 2 μg of the reporter gene-encoding expression plasmid, 0.2 μg of the ERα-encoding or ERβ-encoding expression plasmid and, for reasons of normalisation, 0.2 μg of the cytomegalovirus-derived β-galactosidase. […] After 48 hours, the cells were harvested and assayed for luciferase and β-galactosidase activity. All transfection assays were performed in duplicate and were repeated at least twice.

human ERα = molecular target: T3, human ERα (Homo sapiens, UniProt P03372); experiment: p2ERE-TATA-luc reporter gene assay in CV1 cells transfected with ERα; assay type: cell-based; settings: FIG. 9
T3 construct: expressed in transfected cells; host or cells: CV1 cells
Description: as §1

[4] = no estradiol present, 10 μM or 100 μM

T2 sequence (Q92731 whole entry): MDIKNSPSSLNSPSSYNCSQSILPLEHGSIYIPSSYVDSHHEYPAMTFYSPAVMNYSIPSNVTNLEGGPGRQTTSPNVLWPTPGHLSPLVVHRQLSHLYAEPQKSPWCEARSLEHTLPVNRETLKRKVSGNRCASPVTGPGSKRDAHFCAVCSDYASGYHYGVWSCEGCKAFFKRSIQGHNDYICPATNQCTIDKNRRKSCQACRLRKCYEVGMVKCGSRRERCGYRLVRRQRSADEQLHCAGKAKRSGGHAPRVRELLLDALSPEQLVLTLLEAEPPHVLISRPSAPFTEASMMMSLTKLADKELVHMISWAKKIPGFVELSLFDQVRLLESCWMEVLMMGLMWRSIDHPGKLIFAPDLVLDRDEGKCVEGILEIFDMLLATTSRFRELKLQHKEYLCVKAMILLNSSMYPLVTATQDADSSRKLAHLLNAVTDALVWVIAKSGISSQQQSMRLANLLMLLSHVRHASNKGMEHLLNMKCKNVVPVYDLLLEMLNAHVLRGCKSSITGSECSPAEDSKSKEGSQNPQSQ
T3 sequence (P03372 whole entry): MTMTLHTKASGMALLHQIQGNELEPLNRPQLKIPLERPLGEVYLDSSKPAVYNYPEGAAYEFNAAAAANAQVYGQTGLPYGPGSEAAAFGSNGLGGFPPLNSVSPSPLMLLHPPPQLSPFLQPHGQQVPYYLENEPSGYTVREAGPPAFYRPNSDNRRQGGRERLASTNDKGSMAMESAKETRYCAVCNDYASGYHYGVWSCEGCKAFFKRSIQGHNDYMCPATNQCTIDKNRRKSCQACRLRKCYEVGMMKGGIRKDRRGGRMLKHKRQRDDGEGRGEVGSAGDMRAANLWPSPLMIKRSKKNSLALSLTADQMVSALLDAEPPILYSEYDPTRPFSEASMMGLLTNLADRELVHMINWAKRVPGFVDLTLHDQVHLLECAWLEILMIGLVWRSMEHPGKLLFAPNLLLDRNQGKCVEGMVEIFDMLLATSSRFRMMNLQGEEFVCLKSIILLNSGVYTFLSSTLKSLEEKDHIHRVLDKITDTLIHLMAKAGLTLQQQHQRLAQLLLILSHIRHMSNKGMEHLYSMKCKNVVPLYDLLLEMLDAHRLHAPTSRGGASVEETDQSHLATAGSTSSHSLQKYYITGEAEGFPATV

Cc1cc(O)c(C)c(O)c1C(=O)O [R6, 2,4-dihydroxy-3,6-dimethylbenzoic acid]
antiandrogenic effect of atraric acid derivatives and structurally similar compounds [1]: abrogates the antiandrogenic activity

C[C@]12CC[C@H]3[C@@H](CCC4=CC(=O)CC[C@@]43C)[C@@H]1CC[C@@H]2O [testosterone]
inclusions in cells expressing a pathologically altered androgen receptor [2]: characteristic inclusions in the cytoplasm

Cc1cc(C(=O)OC(C)C)c(O)c(C)c1O [A6, isopropyl-2,4-dihydroxy-3,5-dimethylbenzoate]
inactivation of androgen receptor-mediated transactivation [1]: still able to inactivate
inhibition of androgen receptor-mediated transactivation [1]: nearly completely inhibiting

CC(C)(O)C(=O)Nc1ccc([N+](=O)[O-])c(C(F)(F)F)c1 [OH—F, hydroxyflutamide, reference compound]
growth of LNCaP cells [3]: did not lead to any reduction in growth

COC(=O)c1c(C)cc(O)c(C)c1O [atraric acid, methyl-2,4-dihydroxy-3,6-dimethylbenzoate]
growth of LNCaP cells versus untreated cells ([3]; 10 μM, 8th day of treatment): clearly slower
growth of LNCaP cells [3]: reduced growth
estrogen-responsive expression of the reporter gene (ERβ agonism) (human ERβ; [4]): activated in a dose-dependent manner
hormone-mediated transactivation of ERβ (human ERβ; with estradiol): not affected
estrogen-responsive expression of the reporter gene (ERα agonism) (human ERα; [4]): activated in a dose-dependent manner
hormone-mediated transactivation of ERα (human ERα; with estradiol): not affected

COC(=O)c1ccc(O)c(C)c1O [R4, methyl-2,4-dihydroxy-3-methylbenzoate]
inactivation of androgen receptor-mediated transactivation [1]: still able to inactivate
inhibition of androgen receptor-mediated transactivation [1]: nearly completely inhibiting

CC(C)=CCC/C(C)=C/COC(=O)c1cc(C)c(O)c(C)c1O [A5, (2E)-3,7-dimethylocta-2,6-dien-1-yl-2,4-dihydroxy-3,5-dimethylbenzoate]
antiandrogenic effect of atraric acid derivatives and structurally similar compounds [1]: did not lead to an antiandrogenically active molecule

CC(=O)[C@@]1(O)CC[C@H]2[C@@H]3C=C(Cl)C4=CC(=O)[C@@H]5C[C@@H]5[C@]4(C)[C@H]3CC[C@@]21C [cyproterone]
inclusions in cells expressing a pathologically altered androgen receptor [2]: only a small number of inclusions

COC(=O)c1c(C)c(Br)c(O)c(Br)c1O [R1, methyl-3,5-dibromo-2,4-dihydroxy-6-methylbenzoate]
antiandrogenic effect of atraric acid derivatives and structurally similar compounds [1]: loss of anti androgenic activity

COC(=O)c1c(O)c(C)cc(C)c1O [R5, methyl-2,6-dihydroxy-3,5-dimethylbenzoate]
antiandrogenic effect of atraric acid derivatives and structurally similar compounds [1]: loss of antiandrogenic activity

Cc1cc(O)c(C)c(O)c1C(=O)OCCNS(=O)(=O)c1ccccc1 [A4, 2-[(phenylsulfonyl)amino]ethyl-2,4-dihydroxy-3,6-dimethylbenzoate]
antiandrogenic effect of atraric acid derivatives and structurally similar compounds [1]: no antiandrogenic effect
